Test results from ChEMBL document CHEMBL4219072, “Enhancing the anti-biofilm activity of 5-aryl-2-aminoimidazoles through nature inspired dimerisation” (Bioorg Med Chem, 2018).

Assays:
Escherichia coli [1] = test: Antibiofilm activity against Escherichia coli TG1 after 24 hrs by crystal violet staining based assay; type: functional, organism-based; conditions: TG1, 24 h
Salmonella typhimurium [2] = test: Antibiofilm activity against Salmonella typhimurium ATCC 14028 after 24 hrs by crystal violet staining based assay; type: functional, organism-based, Salmonella enterica subsp. enterica serovar Typhimurium; conditions: Salmonella enterica, ATCC 14028, 24 h
Escherichia coli [3] = test: Inhibition of planktonic growth of Escherichia coli TG1 after 24 hrs; type: organism-based; conditions: TG1, 24 h
Salmonella typhimurium [4] = test: Inhibition of planktonic growth of Salmonella typhimurium ATCC 14028 after 24 hrs; type: organism-based, Salmonella enterica subsp. enterica serovar Typhimurium; conditions: Salmonella enterica, ATCC 14028, 24 h
Staphylococcus aureus [5] = test: Antibiofilm activity against Staphylococcus aureus SH1000 after 48 hrs by crystal violet staining based assay; type: functional, organism-based; conditions: SH1000, 48 h
Pseudomonas aeruginosa = test: Antibiofilm activity against Pseudomonas aeruginosa PA14 after 24 hrs by crystal violet staining based assay; type: functional, organism-based; conditions: PA14, 24 h
Staphylococcus aureus [6] = test: Inhibition of planktonic growth of Staphylococcus aureus SH1000 after 48 hrs; type: organism-based; conditions: SH1000, 48 h

Work on `c1ccc(-c2cnc(NCCCNc3ncc(-c4ccccc4)[nH]3)[nH]2)cc1` yielded an IC50 (Escherichia coli [1]) of 4.1 µM, an IC50 (Salmonella typhimurium [2]) of 5.7 µM and an IC50 (Escherichia coli [3]) of 2.82 µM. The IC50 (Salmonella typhimurium [4]) was 75.9 µM, the IC50 (Staphylococcus aureus [5]) was 300 µM and the IC50 (Pseudomonas aeruginosa) was 2.8 µM. The IC50 (Staphylococcus aureus [6]) was 292 µM.

In the case of `Nc1ncc(-c2ccc(Cl)cc2)n1CCCCCCCCn1c(-c2ccc(Cl)cc2)cnc1N`, the IC50 (Escherichia coli [1]) is reported as 1.1 µM, the IC50 (Salmonella typhimurium [2]) is reported as 2 µM and the IC50 (Escherichia coli [3]) is reported as 2.8 µM. The IC50 (Salmonella typhimurium [4]) was 47.8 µM, the IC50 (Staphylococcus aureus [5]) was 6.1 µM and the IC50 (Pseudomonas aeruginosa) was 1.3 µM. The IC50 (Staphylococcus aureus [6]) was 3.9 µM.

`Nc1ncc(-c2ccc(Cl)cc2)n1CCCCCCCn1c(-c2ccc(Cl)cc2)cnc1N` was tested, and the IC50 (Escherichia coli [1]) was 6.1 µM, the IC50 (Salmonella typhimurium [2]) was 3.3 µM and the IC50 (Escherichia coli [3]) was greater than 400 µM. It also gave an IC50 (Salmonella typhimurium [4]) of 200 µM, an IC50 (Staphylococcus aureus [5]) of 10.6 µM and an IC50 (Pseudomonas aeruginosa) of 4.9 µM. It also gave an IC50 (Staphylococcus aureus [6]) of 16.2 µM.

Work on `Nc1ncc(-c2ccccc2)n1CCCCCn1c(-c2ccccc2)cnc1N` yielded an IC50 (Escherichia coli [1]) of 10.5 µM, an IC50 (Salmonella typhimurium [2]) of 20.2 µM and an IC50 (Escherichia coli [3]) greater than 800 µM. For the same molecule, the IC50 (Salmonella typhimurium [4]) was 89.8 µM, the IC50 (Staphylococcus aureus [5]) was 96.1 µM and the IC50 (Pseudomonas aeruginosa) was 33.1 µM. The IC50 (Staphylococcus aureus [6]) was 85.7 µM.

In the case of `Fc1ccc(-c2cnc(NCCCCCCCCNc3ncc(-c4ccc(F)cc4)[nH]3)[nH]2)cc1`, the IC50 (Escherichia coli [1]) is reported as 31.5 µM, the IC50 (Salmonella typhimurium [2]) is reported as 11.6 µM and the IC50 (Escherichia coli [3]) is reported as 47.6 µM. It also gave an IC50 (Salmonella typhimurium [4]) greater than 800 µM, an IC50 (Staphylococcus aureus [5]) of 372 µM and an IC50 (Pseudomonas aeruginosa) of 15.2 µM. It also gave an IC50 (Staphylococcus aureus [6]) of 250 µM.

Molecule `c1ccc(-c2cnc(NCCCCNc3ncc(-c4ccccc4)[nH]3)[nH]2)cc1` has an IC50 (Escherichia coli [1]) of 12.3 µM, an IC50 (Salmonella typhimurium [2]) of 7.7 µM and an IC50 (Escherichia coli [3]) of 6.81 µM. It also gave an IC50 (Salmonella typhimurium [4]) of 49.4 µM, an IC50 (Staphylococcus aureus [5]) of 28.6 µM and an IC50 (Pseudomonas aeruginosa) of 5.9 µM. The IC50 (Staphylococcus aureus [6]) was 301 µM.

`Nc1ncc(-c2ccccc2)n1CCCCCCCn1c(-c2ccccc2)cnc1N` was tested, and the IC50 (Escherichia coli [1]) was 8 µM, the IC50 (Salmonella typhimurium [2]) was 3.7 µM and the IC50 (Escherichia coli [3]) was greater than 800 µM. It also gave an IC50 (Salmonella typhimurium [4]) greater than 400 µM, an IC50 (Staphylococcus aureus [5]) of 11.7 µM and an IC50 (Pseudomonas aeruginosa) of 3.7 µM. For the same molecule, the IC50 (Staphylococcus aureus [6]) was 32.7 µM.

In the case of `Fc1ccc(-c2cnc(NCCCCCCCNc3ncc(-c4ccc(F)cc4)[nH]3)[nH]2)cc1`, the IC50 (Escherichia coli [1]) is reported as 10 µM, the IC50 (Salmonella typhimurium [2]) is reported as 10.4 µM and the IC50 (Escherichia coli [3]) is reported as 7.48 µM. The IC50 (Salmonella typhimurium [4]) was 86.1 µM, the IC50 (Staphylococcus aureus [5]) was 107 µM and the IC50 (Pseudomonas aeruginosa) was 7.5 µM. The IC50 (Staphylococcus aureus [6]) was 121 µM.

Work on `Nc1ncc(-c2ccccc2)n1CCCn1c(-c2ccccc2)cnc1N` yielded an IC50 (Escherichia coli [1]) of 26.6 µM, an IC50 (Salmonella typhimurium [2]) of 15.3 µM and an IC50 (Escherichia coli [3]) of 62.4 µM. It also gave an IC50 (Salmonella typhimurium [4]) of 147 µM, an IC50 (Staphylococcus aureus [5]) of 0.4 µM and an IC50 (Pseudomonas aeruginosa) of 25.2 µM. It also gave an IC50 (Staphylococcus aureus [6]) of 572 µM.

`Nc1ncc(-c2ccc(Br)cc2)n1CCCCCCCn1c(-c2ccc(Br)cc2)cnc1N` was tested, and the IC50 (Escherichia coli [1]) was 2.3 µM, the IC50 (Salmonella typhimurium [2]) was 1.7 µM and the IC50 (Escherichia coli [3]) was greater than 400 µM. It also gave an IC50 (Salmonella typhimurium [4]) greater than 400 µM, an IC50 (Staphylococcus aureus [5]) of 5.5 µM and an IC50 (Pseudomonas aeruginosa) of 1.1 µM. It also gave an IC50 (Staphylococcus aureus [6]) of 8.02 µM.

In the case of `Brc1ccc(-c2cnc(NCCCNc3ncc(-c4ccc(Br)cc4)[nH]3)[nH]2)cc1`, the IC50 (Escherichia coli [1]) is reported as 4.1 µM, the IC50 (Salmonella typhimurium [2]) is reported as 5.5 µM and the IC50 (Escherichia coli [3]) is reported as 4.77 µM. The IC50 (Salmonella typhimurium [4]) was 11.9 µM, the IC50 (Staphylococcus aureus [5]) was 24.2 µM and the IC50 (Pseudomonas aeruginosa) was 11.2 µM. The IC50 (Staphylococcus aureus [6]) was 29.2 µM.
